# In patent US20220324835A1 (Nurix Therapeutics, Inc., priority 2018, published 2022):
# Columns and labels:
# Cbl-b [1] = molecular target: T1, Cbl-b (Homo sapiens, UniProt Q13191); assay: Cbl-b inhibition assay (Cbl-b activity assay, FRET, Biological Example 1; 100 mM NaCl, 60 nM Src kinase); format: biochemical; conditions: upper bound stated in text lists; read-out: IC50 values in the Cbl-b inhibition assay of Biological Example 1
# Summary of the method: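 TR-FRET assay using N-terminal biotinylated Avi-tagged Cbl-b bound to streptavidin-terbium, Src kinase for Cbl-b phosphorylation, and UbcH5B irreversibly conjugated to Bodipy-Fluorescein-ubiquitin. Phosphorylated Cbl-b binds UbcH5B-Ub, bringing the fluorophores together; inhibition is read as loss of FRET signal.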
# T-cell [2] = assay: IL-2 secretion from T-cells co-stimulated with anti-CD3 and anti-CD28 antibody (Biological Example 2); format: cell-based, human; conditions: Homo sapiens, T-cell, primary human total T-cells, baseline = anti-CD3/anti-CD28 stimulated cells without inhibitor, read-out: IL-2 secretion, Anti-CD3/Anti-CD28 stimulation, fold change over baseline; for fold induction at 0.3 µM: 0.3 μM compound; for fold induction at 1 µM: 1 μM compound
# Summary of the method: (§1)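 T-cells were stimulated with anti-CD3 antibody alone or with anti-CD28 antibody, in the presence or absence of Cbl-b inhibitor. IL-2 secretion or CD25 surface staining was measured, and values expressed as fold over the uninhibited baseline […].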
# T-cell [3] = assay: CD25 cell surface staining on T-cells co-stimulated with anti-CD3 and anti-CD28 antibody (Biological Example 2); format: cell-based, human; conditions: Homo sapiens, T-cell, primary human total T-cells, baseline = anti-CD3/anti-CD28 stimulated cells without inhibitor, read-out: CD25 staining, Anti-CD3/Anti-CD28 stimulation, fold change over baseline; for fold induction at 0.3 µM: 0.3 μM compound; for fold induction at 1 µM: 1 μM compound
# Summary of the method: as §1
# Cbl-b [4] = molecular target: T1, Cbl-b; assay: Cbl-b activity assay (Cbl-b inhibition assay), TR-FRET of Cbl-b interaction with UbcH5B-Ub; format: biochemical; conditions: assay buffer with 100 mM NaCl, 60 nM Src kinase; read-out: Cbl-b activity IC50
# Summary of the method: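 UbcH5B (C85K) conjugated to N-terminally Bodipy-Fluorescein-labeled ubiquitin served as the fluorescent partner. After compound preincubation, Src kinase (60 nM) with 1 mM ATP and 5 mM MgCl2 (final) was added for 1.5 h, followed by a further 1 h incubation. Some values were obtained with 50 mM NaCl and 30 nM Src.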
# T-cell [5] = assay: IL-2 secretion from T-cells stimulated with anti-CD3 antibody alone (Biological Example 2); format: cell-based; conditions: 1 μM compound, primary human total T-cells, read-out: IL-2 secretion, Anti-CD3 stimulation, fold change over baseline
# T-cell [6] = assay: CD25 cell surface staining on T-cells stimulated with anti-CD3 antibody alone (Biological Example 2); format: cell-based; conditions: 1 μM compound, primary human total T-cells, baseline = anti-CD3/anti-CD28 stimulated cells without inhibitor, read-out: CD25 staining, Anti-CD3 stimulation, fold change over baseline
# T1 sequence (Q13191 36-427): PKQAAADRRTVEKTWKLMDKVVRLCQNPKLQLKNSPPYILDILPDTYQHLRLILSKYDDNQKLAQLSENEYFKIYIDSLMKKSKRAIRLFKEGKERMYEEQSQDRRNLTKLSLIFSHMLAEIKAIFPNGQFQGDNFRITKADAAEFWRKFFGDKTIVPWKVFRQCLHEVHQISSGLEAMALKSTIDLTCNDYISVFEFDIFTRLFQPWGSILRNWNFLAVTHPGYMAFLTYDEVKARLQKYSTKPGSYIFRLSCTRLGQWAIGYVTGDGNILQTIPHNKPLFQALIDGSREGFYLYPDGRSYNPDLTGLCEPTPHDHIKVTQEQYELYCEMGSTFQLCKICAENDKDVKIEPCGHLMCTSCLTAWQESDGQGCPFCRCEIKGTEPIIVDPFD
Compound,IC50 (Cbl-b [1]) [nM],fold induction at 0.3 µM (T-cell [2]),fold induction at 1 µM (T-cell [2]),fold induction at 0.3 µM (T-cell [3]),fold induction at 1 µM (T-cell [3]),IC50 (Cbl-b [4]) [nM],fold induction at 1 µM (T-cell [5]),fold induction at 1 µM (T-cell [6])
"Cn1cnnc1CC1(c2cccc(N3Cc4c(cc(CN5CC6CC6(C)C5)cc4C(F)(F)F)C3=O)c2)COC1 (centres unmarked) [Compound 491, 6-((1-methyl-3-azabicyclo[3.1.0]hexan-3-yl)methyl)-2-(3-(3-((4-methyl-4H-1,2,4-triazol-3-yl)methyl)oxetan-3-yl)phenyl)-4-(trifluoromethyl)isoindolin-1-one]",≤ 100,> 7.5,> 7.5,1.01 to 1.3,1.01 to 1.3,< 100,> 0.201,> 1
"Cn1cnnc1CC1(c2cccc(NC(=O)c3csc(C(F)(F)F)n3)c2)COC1 [Compound 492, N-(3-{3-[(4-methyl-1,2,4-triazol-3-yl)methyl]oxetan-3-yl}phenyl)-2-(trifluoromethyl)-1,3-thiazole-4-carboxamide]",≤ 100,1.01 to 2.5,1.01 to 2.5,1.01 to 1.3,1.01 to 1.3,< 100,0.051 to 0.1,0.601 to 0.8
"Cn1cnnc1CC1(c2cccc(NC(=O)c3nc(C4CC4)cs3)c2)COC1 [Compound 493, 4-cyclopropyl-N-(3-{3-[(4-methyl-1,2,4-triazol-3-yl)methyl]oxetan-3-yl}phenyl)-1,3-thiazole-2-carboxamide]",≤ 1000,< 1,1.01 to 2.5,1.01 to 1.3,1.01 to 1.3,301 to 1000,< 0.05,< 0.6
"Cn1cnnc1CC1(c2cccc(NC(=O)c3csc(C4CC4)n3)c2)COC1 [Compound 494, 2-cyclopropyl-N-(3-{3-[(4-methyl-1,2,4-triazol-3-yl)methyl]oxetan-3-yl}phenyl)-1,3-thiazole-4-carboxamide]",≤ 300,1.01 to 2.5,1.01 to 2.5,1.01 to 1.3,1.01 to 1.3,100 to 300,0.051 to 0.1,0.601 to 0.8
"Cn1cnnc1CC1(c2cccc(NC(=O)c3cc(CN4CCC5CC54)cc(C4CC4)n3)c2)COC1 (centres unmarked) [Compound 497, 4-{2-azabicyclo[3.1.0]hexan-2-ylmethyl}-6-cyclopropyl-N-(3-{3-[(4-methyl-1,2,4-triazol-3-yl)methyl]oxetan-3-yl}phenyl)pyridine-2-carboxamide]",≤ 100,> 7.5,> 7.5,1.31 to 1.5,1.31 to 1.5,< 100,> 0.201,> 1
"Cn1cnnc1CC1(c2cccc(NC(=O)c3cc(CN4C[C@H]5C[C@H]5C4)cc(C4CC4)n3)c2)COC1 [Compound 498, 4-{3-azabicyclo[3.1.0]hexan-3-ylmethyl}-6-cyclopropyl-N-(3-{3-[(4-methyl-1,2,4-triazol-3-yl)methyl]oxetan-3-yl}phenyl)pyridine-2-carboxamide]",≤ 100,> 7.5,> 7.5,1.31 to 1.5,1.31 to 1.5,< 100,> 0.201,> 1
Cn1cnnc1CC1(c2cccc(NC(=O)c3cc(CN4C[C@@H]5[C@H](C4)C5(F)F)cc(C4CC4)n3)c2)COC1 [Compound 499],≤ 100,> 7.5,> 7.5,1.31 to 1.5,1.31 to 1.5,< 100,> 0.201,> 1
"Cc1conc1CC1(c2cccc(NC(=O)c3cc(CN4CCC5(CC5)C4)cc(C4CC4)n3)c2)COC1 [Compound 500, 4-{5-azaspiro[2.4]heptan-5-ylmethyl}-6-cyclopropyl-N-(3-{3-[(4-methyl-1,2-oxazol-3-yl)methyl]oxetan-3-yl}phenyl)pyridine-2-carboxamide]",≤ 100,> 7.5,> 7.5,1.31 to 1.5,1.31 to 1.5,< 100,> 0.201,> 1
"Cn1cnnc1CC1(c2cccc(NC(=O)c3cc(OC(F)F)cc(C4CC4)n3)c2)COC1 [Compound 502, 6-cyclopropyl-4-(difluoromethoxy)-N-(3-{3-[(4-methyl-1,2,4-triazol-3-yl)methyl]oxetan-3-yl}phenyl)pyridine-2-carboxamide]",≤ 100,5 to 7.5,> 7.5,1.01 to 1.3,1.01 to 1.3,< 100,> 0.201,> 1
"CN(C)Cc1cc(C(=O)Nc2cccc(C3(Cc4nncn4C)COC3)c2)nc(C2CC2)n1 [Compound 503, 2-cyclopropyl-6-[(dimethylamino)methyl]-N-(3-{3-[(4-methyl-1,2,4-triazol-3-yl)methyl]oxetan-3-yl}phenyl)pyrimidine-4-carboxamide]",≤ 100,2.51 to 5,> 7.5,1.31 to 1.5,1.31 to 1.5,< 100,0.101 to 0.15,> 1
"Cn1cnnc1CC1(c2cccc(NC(=O)c3cc(CN4CCC4)nc(C4CC4)n3)c2)COC1 [Compound 504, 6-(azetidin-1-ylmethyl)-2-cyclopropyl-N-(3-{3-[(4-methyl-1,2,4-triazol-3-yl)methyl]oxetan-3-yl}phenyl)pyrimidine-4-carboxamide]",≤ 100,2.51 to 5,5 to 7.5,1.01 to 1.3,1.31 to 1.5,< 100,0.051 to 0.1,0.801 to 1
"Cn1cnnc1CC1(c2cccc(NC(=O)c3cc(CN4CC[C@H](O)C4)nc(C4CC4)n3)c2)COC1 [Compound 505, 2-cyclopropyl-6-{[(3S)-3-hydroxypyrrolidin-1-yl]methyl}-N-(3-{3-[(4-methyl-1,2,4-triazol-3-yl)methyl]oxetan-3-yl}phenyl)pyrimidine-4-carboxamide]",≤ 100,1.01 to 2.5,2.51 to 5,1.01 to 1.3,1.01 to 1.3,< 100,0.051 to 0.1,0.601 to 0.8
"Cc1conc1CC1(c2cccc(NC(=O)c3cc(CN4CC[C@H](O)C4)nc(C4CC4)n3)c2)COC1 [Compound 507, 2-cyclopropyl-6-{[(3S)-3-hydroxypyrrolidin-1-yl]methyl}-N-(3-{3-[(4-methyl-1,2-oxazol-3-yl)methyl]oxetan-3-yl}phenyl)pyrimidine-4-carboxamide]",≤ 100,> 7.5,> 7.5,1.31 to 1.5,1.31 to 1.5,< 100,> 0.201,> 1
